Reference: patent US11173151B2, “Substituted triazole derivatives and uses thereof” (BAYER AKTIENGESELLSCHAFT, priority 2017, dated 2021)
Like-named read-outs stand apart in the source and are kept apart here.

Key:
human V1a receptor = molecular target: T1, human V1a receptor (Homo sapiens, UniProt P37288); experiment: Cellular in vitro assay for determining vasopressin receptor activity, V1a receptor cell line (CHO, aequorin luminescence); format: cell-based; details: for IC50: CHO cell line transfected with human V1a receptor, [Arg]-vasopressin at EC50 concentration, read-out: IC50 hV1a; for ratio IC50 hV2/hV1a: selectivity ratio IC50 hV2 / IC50 hV1a
T1 construct: expressed in transfected cells; host or cells: CHO K1 (ATCC), also stably transfected with a modified aequorin
Method in brief: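 IC50 from inhibition of [Arg]-vasopressin (EC50 concentration)-evoked aequorin luminescence in CHO K1 cells, with 10-min compound pretreatment.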

human V2 receptor = molecular target: T2, human V2 receptor (Homo sapiens, UniProt P30518); experiment: Cellular in vitro assay for determining vasopressin receptor activity, V2 receptor cell line (CHO, CRE-luciferase); format: cell-based; details: CHO cell line transfected with human V2 receptor, [Arg8]-vasopressin at EC50 concentration, read-out: IC50 hV2
T2 construct: expressed in transfected cells; host or cells: CHO K1 (ATCC) expressing firefly luciferase under a CRE-responsive promoter
T2 sequence (P30518 whole entry): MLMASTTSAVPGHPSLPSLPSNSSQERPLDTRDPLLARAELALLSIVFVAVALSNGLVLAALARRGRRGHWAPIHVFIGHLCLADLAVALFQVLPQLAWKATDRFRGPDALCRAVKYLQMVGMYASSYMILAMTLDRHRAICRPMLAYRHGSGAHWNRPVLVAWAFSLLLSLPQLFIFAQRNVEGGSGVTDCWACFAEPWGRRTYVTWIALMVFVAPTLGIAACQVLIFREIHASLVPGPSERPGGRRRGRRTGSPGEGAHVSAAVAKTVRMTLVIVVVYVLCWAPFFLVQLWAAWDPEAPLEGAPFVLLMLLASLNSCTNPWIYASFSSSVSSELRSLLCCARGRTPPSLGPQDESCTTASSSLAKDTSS

T1 sequence (P37288 whole entry): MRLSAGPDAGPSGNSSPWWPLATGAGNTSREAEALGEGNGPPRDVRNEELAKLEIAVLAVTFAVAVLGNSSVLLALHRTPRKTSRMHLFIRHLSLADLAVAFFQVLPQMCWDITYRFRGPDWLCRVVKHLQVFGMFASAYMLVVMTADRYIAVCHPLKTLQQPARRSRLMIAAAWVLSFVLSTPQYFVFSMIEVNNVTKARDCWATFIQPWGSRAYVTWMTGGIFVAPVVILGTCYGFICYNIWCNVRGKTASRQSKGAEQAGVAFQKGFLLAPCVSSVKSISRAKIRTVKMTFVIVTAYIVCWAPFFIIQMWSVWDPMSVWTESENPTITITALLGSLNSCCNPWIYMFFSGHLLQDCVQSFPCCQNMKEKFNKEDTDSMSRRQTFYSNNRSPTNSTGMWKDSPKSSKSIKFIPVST

Row | SMILES | IC50 (human V1a receptor) | ratio IC50 hV2/hV1a (human V1a receptor) | IC50 (human V2 receptor) | IC50 (human V2 receptor; 3 hours)
1 | O=C(c1ncccc1-n1cnc(Cn2nc(-c3ccc(Cl)cc3)n(C[C@@H](O)C(F)(F)F)c2=O)n1)N1CCC(C(F)(F)F)C1 (mixture of isomers) [Example 480, 5-(4-Chlorophenyl)-4-[(2R)-3,3,3-trifluoro-2-hydroxypropyl]-2-{[1-(2-{[3-(trifluoromethyl)pyrrolidin-1-yl]carbonyl}pyridin-3-yl)-1H-1,2,4-triazol-3-yl]methyl}-2,4-dihydro-3H-1,2,4-triazol-3-one] | 460 nM | 69.6 | 32 µM | –
2 | NC(CNC(=O)c1ncccc1-n1cnc(Cn2nc(-c3ccc(Cl)cc3)n(C[C@@H](O)C(F)(F)F)c2=O)n1)C(F)(F)F (mixture of isomers) [Example 484, N-[2-Amino-3,3,3-trifluoropropyl]-3-[3-({3-(4-chlorophenyl)-5-oxo-4-[(2R)-3,3,3-trifluoro-2-hydroxypropyl]-4,5-dihydro-1H-1,2,4-triazol-1-yl}methyl)-1H-1,2,4-triazol-1-yl]pyridine-2-carboxamide] | 210 nM | 44.8 | 9.4 µM | –
3 | O=C(NCC(O)C(F)(F)F)c1ncccc1-n1cnc(Cn2nc(-c3ccc(Cl)cc3)n(C[C@@H](O)C(F)(F)F)c2=O)n1 (mixture of isomers) [Example 485, 3-[3-({3-(4-Chlorophenyl)-5-oxo-4-[(2R)-3,3,3-trifluoro-2-hydroxypropyl]-4,5-dihydro-1H-1,2,4-triazol-1-yl}methyl)-1H-1,2,4-triazol-1-yl]-N-[3,3,3-trifluoro-2-hydroxypropyl]pyridine-2-carboxamide] | 230 nM | 21.7 | 5 µM | –
4 | COCC1CCCN1C(=O)c1ccncc1-n1cnc(Cn2nc(-c3ccc(Cl)cc3)n(C[C@H](O)C(F)(F)F)c2=O)n1 (mixture of isomers) [Example 493, 5-(4-Chlorophenyl)-2-{[1-(4-{[2-(methoxymethyl)pyrrolidin-1-yl]carbonyl}pyridin-3-yl)-1H-1,2,4-triazol-3-yl]methyl}-4-[(2S)-3,3,3-trifluoro-2-hydroxypropyl]-2,4-dihydro-3H-1,2,4-triazol-3-one] | 13.5 nM | 540.7 | 7.3 µM | –
5 | O=C(NC1CC1F)c1cccnc1-n1cnc(Cn2nc(-c3ccc(Cl)cc3)n(C[C@H](O)C(F)(F)F)c2=O)n1 (mixture of isomers) [Example 503] | 5.55 nM | 38.7 | 0.215 µM | –
6 | COCC1CCCN1C(=O)c1ccncc1-n1nc(Cn2nc(-c3ccc(Cl)cc3)n(C[C@H](O)C(F)(F)F)c2=O)nc1C(=O)N1CCNC(=O)C1 (mixture of isomers) [Example 516, 4-{[3-({3-(4-Chlorophenyl)-5-oxo-4-[(2S)-3,3,3-trifluoro-2-hydroxypropyl]-4,5-dihydro-1H-1,2,4-triazol-1-yl}methyl)-1-(4-{[2-(methoxymethyl)pyrrolidin-1-yl]carbonyl}pyridin-3-yl)-1H-1,2,4-triazol-5-yl]carbonyl}piperazin-2-one] | 5700 nM | 9.6 | 55 µM | –
7 | COCC1CCCN1C(=O)c1ccncc1-n1nc(Cn2nc(-c3ccc(Cl)cc3)n(C[C@H](O)C(F)(F)F)c2=O)nc1C(=O)N1CCS(=O)(=O)CC1 (mixture of isomers) [Example 522, 5-(4-Chlorophenyl)-2-({5-[(1,1-dioxidothiomorpholin-4-yl)carbonyl]-1-(4-{[2-(methoxymethyl)pyrrolidin-1-yl]carbonyl}pyridin-3-yl)-1H-1,2,4-triazol-3-yl}methyl)-4-[(2S)-3,3,3-trifluoro-2-hydroxypropyl]-2,4-dihydro-3H-1,2,4-triazol-3-one] | 3000 nM | 5.0 | 15 µM | –
8 | COCC1CCCN1C(=O)c1cccnc1-n1nc(Cn2nc(-c3ccc(Cl)cc3)n(C[C@H](O)C(F)(F)F)c2=O)nc1C(=O)N1CCNC(=O)C1 (mixture of isomers) [Example 526, 4-{[3-({3-(4-Chlorophenyl)-5-oxo-4-[(2S)-3,3,3-trifluoro-2-hydroxypropyl]-4,5-dihydro-1H-1,2,4-triazol-1-yl}methyl)-1-(3-{[2-(methoxymethyl)pyrrolidin-1-yl]carbonyl}pyridin-2-yl)-1H-1,2,4-triazol-5-yl]carbonyl}piperazin-2-one] | 8650 nM | 2.3 | 20 µM | –
9 | COCC1CCCN1C(=O)c1cccnc1-n1nc(Cn2nc(-c3ccc(Cl)cc3)n(C[C@H](O)C(F)(F)F)c2=O)nc1C(=O)N1CCS(=O)(=O)CC1 (mixture of isomers) [Example 532, 5-(4-Chlorophenyl)-2-({5-[(1,1-dioxidothiomorpholin-4-yl)carbonyl]-1-(3-{[2-(methoxymethyl)pyrrolidin-1-yl]carbonyl}pyridin-2-yl)-1H-1,2,4-triazol-3-yl}methyl)-4-[(2S)-3,3,3-trifluoro-2-hydroxypropyl]-2,4-dihydro-3H-1,2,4-triazol-3-one] | 275 nM | 17.6 | 4.85 µM | –
10 | COCC1CCCN1C(=O)c1ccncc1-n1nc(Cn2nc(-c3ccc(Cl)cc3)n(C[C@H](O)C(F)(F)F)c2=O)nc1C(=O)NCC(C)(C)N (mixture of isomers) [Example 536, N-(2-amino-2-methylpropyl)-3-({3-(4-chlorophenyl)-5-oxo-4-[(2S)-3,3,3-trifluoro-2-hydroxypropyl]-4,5-dihydro-1H-1,2,4-triazol-1-yl}methyl)-1-(4-{[2-(methoxymethyl)pyrrolidin-1-yl]carbonyl}pyridin-3-yl)-1H-1,2,4-triazol-5-carboxamide] | 280 nM | 297.6 | 83.3 µM | –
11 | O=C(Nc1cccnc1-n1cnc(Cn2nc(-c3ccc(Cl)cc3)n(C[C@H](O)C(F)(F)F)c2=O)n1)[C@@H]1C[C@@H]1C(F)(F)F (racemic) [Example 45, N-{2-[3-({3-(4-Chlorophenyl)-5-oxo-4-[(2S)-3,3,3-trifluoro-2-hydroxypropyl]-4,5-dihydro-1H-1,2,4-triazol-1-yl}methyl)-1H-1,2,4-triazol-1-yl]pyridin-3-yl}-2-(trifluoromethyl)cyclopropanecarboxamide] | 33 nM | 21.0 | – | 0.693 µM
12 | O=C(Nc1ncccc1-n1cnc(Cn2nc(-c3ccc(Cl)cc3)n(C[C@H](O)C(F)(F)F)c2=O)n1)[C@@H]1C[C@@H]1F (racemic) [Example 76, N-{3-[3-({3-(4-Chlorophenyl)-5-oxo-4-[(2S)-3,3,3-trifluoro-2-hydroxypropyl]-4,5-dihydro-1H-1,2,4-triazol-1-yl}methyl)-1H-1,2,4-triazol-1-yl]pyridin-2-yl}-2-fluorocyclopropanecarboxamide] | 6.45 nM | 362.4 | – | 2.34 µM
13 | O=C(Nc1ncccc1-n1cnc(Cn2nc(-c3ccc(Cl)cc3)n(C[C@H](O)C(F)(F)F)c2=O)n1)[C@@H]1C[C@@H]1C(F)(F)F (racemic) [Example 79, N-{3-[3-({3-(4-Chlorophenyl)-5-oxo-4-[(2S)-3,3,3-trifluoro-2-hydroxypropyl]-4,5-dihydro-1H-1,2,4-triazol-1-yl}methyl)-1H-1,2,4-triazol-1-yl]pyridin-2-yl}-2-(trifluoromethyl)cyclopropanecarboxamide] | 102 nM | 102.9 | – | 10.5 µM
14 | O=C(Nc1ncccc1-n1cnc(Cn2nc(-c3ccc(Cl)cc3)n(C[C@H](O)C(F)(F)F)c2=O)n1)[C@H]1C[C@@H]1F (racemic) [Example 84, N-{3-[3-({3-(4-Chlorophenyl)-5-oxo-4-[(2S)-3,3,3-trifluoro-2-hydroxypropyl]-4,5-dihydro-1H-1,2,4-triazol-1-yl}methyl)-1H-1,2,4-triazol-1-yl]pyridin-2-yl}-2-fluorocyclopropanecarboxamide] | 9.95 nM | 321.6 | – | 3.2 µM
15 | O=C(N[C@H]1C[C@H]1F)c1cccc(Cl)c1-n1cnc(Cn2nc(-c3ccc(Cl)cc3)n(C[C@H](O)C(F)(F)F)c2=O)n1 (racemic) [Example 389, 3-Chloro-2-[3-({3-(4-chlorophenyl)-5-oxo-4-[(2S)-3,3,3-trifluoro-2-hydroxypropyl]-4,5-dihydro-1H-1,2,4-triazol-1-yl}methyl)-1H-1,2,4-triazol-1-yl]-N-[2-fluorocyclopropyl]benzamide] | 2.65 nM | 315.1 | – | 0.835 µM
16 | O=C(N[C@H]1C[C@H]1F)c1cccc(Cl)c1-n1cnc(Cn2nc(-c3ccc(Cl)cc3)n(C[C@@H](O)C(F)(F)F)c2=O)n1 (racemic) [Example 397, 3-Chloro-2-[3-({3-(4-chlorophenyl)-5-oxo-4-[(2R)-3,3,3-trifluoro-2-hydroxypropyl]-4,5-dihydro-1H-1,2,4-triazol-1-yl}methyl)-1H-1,2,4-triazol-1-yl]-N-[2-fluorocyclopropyl]benzamide] | 72 nM | 96.5 | – | 6.95 µM
17 | O=C(N[C@@H]1C[C@@H]1F)c1cccc(C(F)(F)F)c1-n1cnc(Cn2nc(-c3ccc(Cl)cc3)n(C[C@H](O)C(F)(F)F)c2=O)n1 (racemic) [Example 413, 2-[3-({3-(4-Chlorophenyl)-5-oxo-4-[(2S)-3,3,3-trifluoro-2-hydroxypropyl]-4,5-dihydro-1H-1,2,4-triazol-1-yl}methyl)-1H-1,2,4-triazol-1-yl]-N-[2-fluorocyclopropyl]-3-(trifluoromethyl)benzamide] | 34.5 nM | 59.4 | 2.05 µM | –
